Measurements reported in the NIST ThermoML archive (doi:10.1016/j.fluid.2008.03.004).

Test: xn = mol fraction of the nth substance listed
Details: 101 kPa, Liquid; for speed of sound: Sing-around technique in a fixed-path interferometer

Cc1ccccc1C [1,2-dimethylbenzene] + COC(C)(C)C
Details	mass density [kg/m3]	speed of sound [m/s]
288.15 K, x2 = 0	883.36	1381.3
288.15 K, x2 = 0.052	876.722	1374.2
288.15 K, x2 = 0.101	870.811	1361.2
288.15 K, x2 = 0.203	857.652	1332.7
288.15 K, x2 = 0.303	844.603	1302.7
288.15 K, x2 = 0.401	831.766	1274.2
288.15 K, x2 = 0.499	818.201	1243.3
288.15 K, x2 = 0.604	803.537	1212.8
288.15 K, x2 = 0.707	788.841	1179
288.15 K, x2 = 0.8	775.294	1148.4
288.15 K, x2 = 0.9	760.339	1119.5
288.15 K, x2 = 0.95	752.593	1099.1
290.65 K, x2 = 0	881.265	1371.8
290.65 K, x2 = 0.052	874.606	1364.9
290.65 K, x2 = 0.101	868.675	1350.7
290.65 K, x2 = 0.203	855.478	1322.1
290.65 K, x2 = 0.303	842.386	1292
290.65 K, x2 = 0.401	829.505	1263.3
290.65 K, x2 = 0.499	815.897	1232.4
290.65 K, x2 = 0.604	801.177	1201.5
290.65 K, x2 = 0.707	786.421	1167.7
290.65 K, x2 = 0.8	772.825	1136.8
290.65 K, x2 = 0.9	757.801	1107.9
290.65 K, x2 = 0.95	750.025	1087.4
293.15 K, x2 = 0	879.168	1362.2
293.15 K, x2 = 0.052	872.486	1354.8
293.15 K, x2 = 0.101	866.535	1340.3
293.15 K, x2 = 0.203	853.3	1311.6
293.15 K, x2 = 0.303	840.168	1281.4
293.15 K, x2 = 0.401	827.242	1252.5
293.15 K, x2 = 0.499	813.586	1221.6
293.15 K, x2 = 0.604	798.814	1190.3
293.15 K, x2 = 0.707	783.998	1156.6
293.15 K, x2 = 0.8	770.35	1125.5
293.15 K, x2 = 0.9	755.264	1096.5
293.15 K, x2 = 0.95	747.451	1075.9
295.65 K, x2 = 0	877.069	1351.8
295.65 K, x2 = 0.052	870.364	1344.5
295.65 K, x2 = 0.101	864.394	1329.8
295.65 K, x2 = 0.203	851.12	1301.1
295.65 K, x2 = 0.303	837.944	1270.7
295.65 K, x2 = 0.401	824.973	1241.8
295.65 K, x2 = 0.499	811.273	1210.7
295.65 K, x2 = 0.604	796.444	1179.3
295.65 K, x2 = 0.707	781.567	1145.4
295.65 K, x2 = 0.8	767.869	1114.1
295.65 K, x2 = 0.9	752.717	1085.1
295.65 K, x2 = 0.95	744.871	1064.4
298.15 K, x2 = 0	874.968	1341.5
298.15 K, x2 = 0.052	868.242	1334.2
298.15 K, x2 = 0.101	862.253	1319.6
298.15 K, x2 = 0.203	848.937	1290.6
298.15 K, x2 = 0.303	835.714	1260.1
298.15 K, x2 = 0.401	822.702	1231.1
298.15 K, x2 = 0.499	808.953	1199.9
298.15 K, x2 = 0.604	794.069	1168.2
298.15 K, x2 = 0.707	779.131	1134.3
298.15 K, x2 = 0.8	765.379	1102.7
298.15 K, x2 = 0.9	750.16	1073.7
298.15 K, x2 = 0.95	742.284	1052.9
300.65 K, x2 = 0	872.865	1331.2
300.65 K, x2 = 0.052	866.116	1323.9
300.65 K, x2 = 0.101	860.108	1309.4
300.65 K, x2 = 0.203	846.749	1280.2
300.65 K, x2 = 0.303	833.484	1249.6
300.65 K, x2 = 0.401	820.426	1220.3
300.65 K, x2 = 0.499	806.626	1189.1
300.65 K, x2 = 0.604	791.685	1157.2
300.65 K, x2 = 0.707	776.688	1123.2
300.65 K, x2 = 0.8	762.882	1091.4
300.65 K, x2 = 0.9	747.591	1062.2
300.65 K, x2 = 0.95	739.686	1041.5
303.15 K, x2 = 0	870.759	1321
303.15 K, x2 = 0.052	863.985	1313.7
303.15 K, x2 = 0.101	857.959	1299.2
303.15 K, x2 = 0.203	844.558	1269.8
303.15 K, x2 = 0.303	831.25	1239.1
303.15 K, x2 = 0.401	818.144	1209.7
303.15 K, x2 = 0.499	804.296	1178.4
303.15 K, x2 = 0.604	789.298	1146.3
303.15 K, x2 = 0.707	774.237	1112.1
303.15 K, x2 = 0.8	760.378	1080.2
303.15 K, x2 = 0.9	745.002	1050.7
303.15 K, x2 = 0.95	737.076	1030
305.65 K, x2 = 0	–	1310.8
305.65 K, x2 = 0.052	–	1303.6
305.65 K, x2 = 0.101	–	1289
305.65 K, x2 = 0.203	–	1259.5
305.65 K, x2 = 0.303	–	1228.6
305.65 K, x2 = 0.401	–	1199
305.65 K, x2 = 0.499	–	1167.7
305.65 K, x2 = 0.604	–	1135.3
305.65 K, x2 = 0.707	–	1101
305.65 K, x2 = 0.8	–	1069
305.65 K, x2 = 0.9	–	1038.7
305.65 K, x2 = 0.95	–	1018.6
